Data reported in patent US20240115729A1, “COMPOSITIONS AND METHODS FOR TARGETED ANTIFIBROTIC THERAPY IN CHRONIC PANCREATITIS” (University of Virginia Patent Foundation, priority 2021, published 2024).
Where “and” joins values, the source holds several entries; their conditions need not be identical. Equal entries are not always repeated.

Experiments:
CD31 (mouse) = CD31 (mouse) (UniProt Q08481); test: IF colocalization (JACoP) of VT680 phage with marker, CP mouse pancreas sections
collagen IIIa (mouse) = collagen IIIa (mouse) (UniProt P08121); test: as above
[1] = target: cytokeratin 7 (CK-7) (mouse) (UniProt Q9DCV7); test: as above
[2] = target: carboxypeptidase A1 (CPA1) (mouse) (UniProt Q7TPZ8); test: as above
F4/80 (mouse) = F4/80 (mouse) (UniProt Q61549); test: as above
CD31 (endothelium) = test: Immunofluorescence colocalization (MCC) of VT680-labeled phage with cell marker in CP pancreas; format: in vivo, mouse; settings: CP pancreas sections
From the text: (§1) Immunofluorescence (IF). Post ex vivo imaging, mouse pancreata were submerged in Neg-50 Frozen Section Medium (Thermo Scientific, Waltham, Massachusetts, United States of America) and snap-frozen over liquid nitrogen vapor. The embedded tissues were cut into 5 μm sections using a cryostat (Leica Microsystems Inc., Buffalo Grove, Illinois, United States of America) for subsequent imaging with ZEISS LSM-880 Confocal Laser Scanning Microscope (Carl Zeiss Meditec, Inc., Jena, Germany) at the Advanced Microscopy Facility at the University of Virginia. Cell types of interest in the pancreatitis microenvironment were identified by immunohistochemistry using the following antibodies: rat anti-mouse CD31 at 1:200 dilution (endothelial markers; BD Biosciences, San Jose, California, United States of America), rat anti-mouse CD206 at 1:1000 dilution (M2 macrophage markers; Bio-Rad, Hercules, California, United States of America), rabbit anti-mouse cytokeratin 7 at 1:3000 dilution (CK-7, epithelial markers; Abcam, Cambridge, Massachusetts, United States of America), rabbit anti-mouse collagen IIIa at 1:200 dilution (ECM markers; Abcam, Cambridge, Massachusetts, United States of America), goat anti-mouse carboxypeptidase A1 at 1:200 dilution (CPA1, acini markers; R&D Systems, Inc., Minneapolis, Minnesota, United States of America), rat anti-mouse F4/80 at 1:500 (macrophage markers; Bio-Rad, Hercules, California, United States of America), and FITC-conjugated, mouse anti-mouse α-SMA at 1:200 dilution (MilliporeSigma, St. Louis, Missouri, United States of America). ALEXA FLUOR® 488 (Abcam, Cambridge, Massachusetts, United States of America) antibodies from appropriate species, including donkey anti-goat, donkey anti-rat, donkey anti-rabbit at 1:500 dilution, were used as secondary antibodies to locate the primary antibodies. IF-stained pancreatic sections were mounted with PROLONG™ Gold Antifade Mountant with DAPI (Thermo Fisher Scientific Inc, Waltham, Massachusetts, United States of America, United States of America) for nucleus visualization. IF images were taken on Ziess LSM 880 Confocal Microscope (ZIESS, Oberkochen, Germany) at the Advanced Microscopy Facility at the University of Virginia.
(§2) To identify the cell types that the CP targeting clones were binding, immunofluorescent analysis was performed on common cellular components in the CP microenvironment in the inflamed pancreas sections following in vivo validation of individual clones (FIG. 7). Mander's correlation coefficient (MCC) analysis was performed to determine colocalization of the targeting phage to the cell markers.

CK7 (epithelium) = test: as above; format: in vivo, mouse; settings: CP pancreas sections
From the text: as §1, §2

[3] = test system: F4/80+ cells (macrophages); test: as above; format: in vivo, mouse; settings: CP pancreas sections
From the text: as §1, §2

[4] = test system: αSMA+ cells (activated PSC); test: as above; format: in vivo, mouse; settings: CP pancreas sections
From the text: as §1, §2

[5] = test system: collagen IIIa+ cells (ECM); test: as above; format: in vivo, mouse; settings: Col IIIa; CP pancreas sections
From the text: as §1, §2

[6] = test system: CPA-1+ cells (acinar cells); test: as above; format: in vivo, mouse; settings: CP pancreas sections
From the text: as §1, §2

[7] = test system: cellular components in the CP microenvironment; test: Cellular selectivity of phage clones: one-way ANOVA and Tukey-Kramer comparison of MCC of all cell markers; format: in vivo, mouse
From the text: as §1
Statistical analysis. Statistical analysis of the data was performed by student t-test, one-way analysis of variance (ANOVA), and Tukey-Kramer test. All data presented are expressed as mean+standard error of at least three independent measurements. For all comparisons, p-values<0.05 were considered significant.
as §2

[8] = test system: caerulein-induced CP mice (inflamed pancreas) versus healthy mice; test: In vivo validation of individual phage clones: ex vivo IVIS fluorescence of organs after co-injection of targeting phage (VT680) and wild type M13Ke phage (VT750); design: species or system mouse (C57BL/6J); settings: for CP-to-Healthy Ratio (fold change of specificity ratio): Pancreas; for specificity for CP over healthy pancreas: individual clones from Groups 2 and 3
Description: C57BL/6 J mice (6-12 week-old, female) were used for the in vivo phage screening. For chronic pancreatitis, caerulein (Bachem, Torrance, California, United States of America) was dissolved in sterile saline and administrated to mice twice a day, 8 hours apart for 14 consecutive days, at a concentration of 250 μg/kg body weight via intraperitoneal injection (Halbrook et al., 2017), as shown in FIG. 1A. During the 14-day course, intraperitoneal injections of 100 μg/kg buprenorphine were given every 3 days to minimize the induced pain. For healthy controls, c57BL/6 J mice were injected intraperitoneally with an equal volume of sterile saline following the same schedule as in the chronic pancreatitis models. […] Picrosirius red (Polysciences, Inc., Warrington, Pennsylvania, United States of America) was used to visualize collagen in paraffin-embedded pancreas sections (FIG. 1B).
Specificity of phage clones. After PHASTpep analysis and candidate clone selections, 18 candidate clones were grouped (4-5 clones per group, 4 groups total) based on sequence similarity using GibbsCluster Server 2.0 (Andreatta et al., 2017). by the Technical University of Denmark (FIG. 2). […] For each group, the fluorescently labeled candidate and WT phage were mixed and co-injected in CP and healthy mice (n=5) Phage accumulation was determined by measuring the ex vivo fluorescent intensity of the pancreas at 20 hours post-injection using the Fluorescent Molecular Tomography (FMT, PerkinElmer, Waltham, Massachusetts, United States of America) using the excitation and emission wavelength at 675 nm/720 nm for VT680 and 745 nm/800 nm for VT750. To account for variations of fluorescent labeling efficiency, the raw readouts of VT680 and VT750 were normalized to the dye-per-phage ratio (see Table 3 below).
The specificity ratio was calculated as % ID/g of the normalized VT680 divided by the % ID/g of the normalized VT750 (see Equation (1)). Quantifications are included in Table 4.
A similar procedure was applied to determine the specificity of individual phage clones in Groups 2 and 3. Candidate clones were labeled with VivioTag 680 (VT680, PerkinElmer, Waltham, MA) to match the detectable wavelength of the IVIS Spectrum Series (Perkin Elmer, Waltham, Massachusetts, United States of America). Fluorescent intensity was measured at 20 hours post-injection of candidate phage (VT680) and WT phage (VT750). Fold change of specificity ratio was calculated as the specificity ratio of CP mice divided by the specificity ratio of the healthy mouse (see Table 5).

[9] = statistically significant selectivity for a single cellular component in CP

Chain of UniProt P08121 (P08121 155-1219): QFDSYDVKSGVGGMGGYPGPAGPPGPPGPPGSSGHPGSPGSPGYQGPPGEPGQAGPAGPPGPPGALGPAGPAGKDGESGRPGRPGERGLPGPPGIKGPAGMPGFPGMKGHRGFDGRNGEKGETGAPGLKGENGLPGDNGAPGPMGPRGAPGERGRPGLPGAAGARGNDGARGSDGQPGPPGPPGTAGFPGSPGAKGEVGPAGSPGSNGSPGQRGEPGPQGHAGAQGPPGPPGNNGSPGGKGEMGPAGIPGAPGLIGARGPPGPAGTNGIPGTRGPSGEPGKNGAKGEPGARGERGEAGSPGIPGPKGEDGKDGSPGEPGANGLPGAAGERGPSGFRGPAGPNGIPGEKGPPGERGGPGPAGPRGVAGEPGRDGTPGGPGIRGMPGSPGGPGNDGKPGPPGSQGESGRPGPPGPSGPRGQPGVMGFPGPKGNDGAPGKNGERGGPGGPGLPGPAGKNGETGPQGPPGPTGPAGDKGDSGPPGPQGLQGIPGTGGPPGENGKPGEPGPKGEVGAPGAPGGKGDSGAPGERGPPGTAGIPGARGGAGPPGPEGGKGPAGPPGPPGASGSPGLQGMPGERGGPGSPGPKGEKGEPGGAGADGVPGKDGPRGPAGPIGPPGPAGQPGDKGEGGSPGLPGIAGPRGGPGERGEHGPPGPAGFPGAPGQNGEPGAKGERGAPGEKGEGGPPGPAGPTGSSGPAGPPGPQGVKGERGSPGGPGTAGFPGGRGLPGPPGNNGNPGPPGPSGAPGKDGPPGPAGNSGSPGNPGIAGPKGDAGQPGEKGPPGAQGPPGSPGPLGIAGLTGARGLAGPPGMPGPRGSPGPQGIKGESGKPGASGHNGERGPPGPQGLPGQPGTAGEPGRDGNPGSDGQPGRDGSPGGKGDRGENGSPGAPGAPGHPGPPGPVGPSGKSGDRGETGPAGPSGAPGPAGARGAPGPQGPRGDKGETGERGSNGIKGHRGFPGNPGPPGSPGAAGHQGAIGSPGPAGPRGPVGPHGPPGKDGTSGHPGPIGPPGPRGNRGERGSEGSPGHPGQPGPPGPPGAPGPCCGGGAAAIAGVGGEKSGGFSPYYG
Chain of UniProt Q08481 (Q08481 18-727): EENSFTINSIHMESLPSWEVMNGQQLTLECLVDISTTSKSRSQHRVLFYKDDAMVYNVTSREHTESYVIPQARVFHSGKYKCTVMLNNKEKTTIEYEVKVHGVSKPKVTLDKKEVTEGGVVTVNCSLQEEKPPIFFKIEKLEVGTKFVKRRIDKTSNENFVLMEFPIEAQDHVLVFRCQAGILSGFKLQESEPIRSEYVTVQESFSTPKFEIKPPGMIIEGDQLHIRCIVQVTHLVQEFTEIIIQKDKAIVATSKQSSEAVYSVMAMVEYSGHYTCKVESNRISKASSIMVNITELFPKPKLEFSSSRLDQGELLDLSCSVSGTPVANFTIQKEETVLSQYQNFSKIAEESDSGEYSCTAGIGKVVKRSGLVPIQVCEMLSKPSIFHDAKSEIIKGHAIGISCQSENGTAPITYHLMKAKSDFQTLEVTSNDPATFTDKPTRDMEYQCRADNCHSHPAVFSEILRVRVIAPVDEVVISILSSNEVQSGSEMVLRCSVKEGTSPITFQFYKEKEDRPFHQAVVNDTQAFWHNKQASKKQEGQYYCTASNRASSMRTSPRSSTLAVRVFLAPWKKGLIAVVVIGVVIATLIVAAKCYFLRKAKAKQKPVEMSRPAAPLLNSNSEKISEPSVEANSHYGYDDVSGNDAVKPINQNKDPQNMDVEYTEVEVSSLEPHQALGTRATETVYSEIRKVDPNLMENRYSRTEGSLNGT
Chain of UniProt Q9DCV7 (Q9DCV7 2-457): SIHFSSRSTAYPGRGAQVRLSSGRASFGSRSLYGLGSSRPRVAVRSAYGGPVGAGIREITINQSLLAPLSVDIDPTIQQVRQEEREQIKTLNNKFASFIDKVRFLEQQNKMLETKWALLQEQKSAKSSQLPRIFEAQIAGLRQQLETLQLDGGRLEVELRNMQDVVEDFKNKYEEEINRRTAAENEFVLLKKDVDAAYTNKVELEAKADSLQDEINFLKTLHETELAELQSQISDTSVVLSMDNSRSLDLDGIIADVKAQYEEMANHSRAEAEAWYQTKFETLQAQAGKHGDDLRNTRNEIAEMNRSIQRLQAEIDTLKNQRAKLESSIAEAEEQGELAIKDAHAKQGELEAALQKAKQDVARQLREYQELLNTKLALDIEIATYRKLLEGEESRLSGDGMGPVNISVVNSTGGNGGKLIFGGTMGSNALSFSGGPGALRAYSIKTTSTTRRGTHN
Chain of UniProt Q7TPZ8 (Q7TPZ8 111-419): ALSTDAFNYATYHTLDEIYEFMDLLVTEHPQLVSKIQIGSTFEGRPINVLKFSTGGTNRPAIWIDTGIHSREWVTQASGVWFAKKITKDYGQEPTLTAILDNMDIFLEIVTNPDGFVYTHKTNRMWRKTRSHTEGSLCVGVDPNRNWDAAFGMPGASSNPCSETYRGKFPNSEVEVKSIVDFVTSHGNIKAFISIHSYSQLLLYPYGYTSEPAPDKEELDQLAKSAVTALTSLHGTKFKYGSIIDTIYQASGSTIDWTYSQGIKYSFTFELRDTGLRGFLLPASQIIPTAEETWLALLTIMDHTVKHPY
Chain of UniProt Q61549 (Q61549 28-931): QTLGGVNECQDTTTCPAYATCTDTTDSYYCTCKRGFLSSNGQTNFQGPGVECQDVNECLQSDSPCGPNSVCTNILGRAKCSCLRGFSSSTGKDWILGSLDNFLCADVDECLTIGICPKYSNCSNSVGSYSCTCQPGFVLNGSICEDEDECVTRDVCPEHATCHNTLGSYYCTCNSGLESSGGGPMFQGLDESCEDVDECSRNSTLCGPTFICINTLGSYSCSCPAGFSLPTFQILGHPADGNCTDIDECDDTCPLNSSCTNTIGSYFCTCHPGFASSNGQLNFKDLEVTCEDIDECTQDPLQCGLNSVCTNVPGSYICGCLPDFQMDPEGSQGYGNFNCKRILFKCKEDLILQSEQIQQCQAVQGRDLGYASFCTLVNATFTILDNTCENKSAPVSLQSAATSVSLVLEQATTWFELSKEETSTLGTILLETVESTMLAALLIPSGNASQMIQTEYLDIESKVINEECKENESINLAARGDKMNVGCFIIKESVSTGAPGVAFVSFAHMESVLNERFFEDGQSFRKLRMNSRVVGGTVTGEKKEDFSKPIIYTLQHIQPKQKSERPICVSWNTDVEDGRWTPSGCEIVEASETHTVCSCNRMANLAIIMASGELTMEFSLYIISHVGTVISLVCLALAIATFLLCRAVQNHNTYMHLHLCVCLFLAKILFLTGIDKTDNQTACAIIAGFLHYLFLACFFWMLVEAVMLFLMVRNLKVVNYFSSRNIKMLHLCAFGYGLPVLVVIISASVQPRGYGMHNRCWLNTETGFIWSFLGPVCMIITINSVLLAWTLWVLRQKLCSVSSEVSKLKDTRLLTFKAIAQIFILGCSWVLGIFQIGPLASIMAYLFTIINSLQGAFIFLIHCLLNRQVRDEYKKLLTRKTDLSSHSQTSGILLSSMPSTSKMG

Substance | mean Manders' correlation coefficient (MCC), fraction of phage overlapping cell marker (CD31 (mouse)) | mean Manders' correlation coefficient (MCC), fraction of phage overlapping cell marker (collagen IIIa (mouse)) | mean Manders' correlation coefficient (MCC), fraction of phage overlapping cell marker [1] | mean Manders' correlation coefficient (MCC), fraction of phage overlapping cell marker [2] | mean Manders' correlation coefficient (MCC), fraction of phage overlapping cell marker (F4/80 (mouse)) | Mean Manders' Correlation Coefficient (MCC), fraction of phage overlapping cell marker (CD31 (endothelium)) | Mean Manders' Correlation Coefficient (MCC), fraction of phage overlapping cell marker (CK7 (epithelium)) | Mean Manders' Correlation Coefficient (MCC), fraction of phage overlapping cell marker [3] | Mean Manders' Correlation Coefficient (MCC), fraction of phage overlapping cell marker [4] | Mean Manders' Correlation Coefficient (MCC), fraction of phage overlapping cell marker [5] | Mean Manders' Correlation Coefficient (MCC), fraction of phage overlapping cell marker [6] | Cell type the phage clone shows specificity to ([7]; CP microenvironment) | Corresponding Cellular Components [7, 9] | Radiant efficiency Targeting:M13Ke ([8]; CP mouse, liver) | Radiant efficiency Targeting:M13Ke ([8]; CP mouse, pancreas) | Radiant efficiency Targeting:M13Ke ([8]; CP mouse, spleen) | CP-to-Healthy Ratio ([8]; Liver) | CP-to-Healthy Ratio (fold change of specificity ratio) [8] | CP-to-Healthy Ratio ([8]; Spleen) | Radiant efficiency Targeting:M13Ke ([8]; healthy mouse, liver) | also measured
HPYSPLR (SEQ ID NO: 11) phage clone (peptide) | 0.35 | 0.27 | 0.08 | 0.25 | 0.41 | – | – | – | – | – | – | – | – | – | – | – | – | – | – | – | –
KTYVPTT (SEQ ID NO: 14) phage clone (peptide) | 0.2 | 0.23 | 0.06 | 0.26 | 0.31 | – | – | – | – | – | – | – | – | – | – | – | – | – | – | – | –
MDLSLKP (SEQ ID NO: 19) phage clone (peptide) | 0.2 | – | 0.06 | 0.31 | 0.46 | – | – | – | – | – | – | – | – | – | – | – | – | – | – | – | –
MNSIAIP (SEQ ID NO: 20) phage clone (peptide) | 0.24 | 0.34 | 0.05 | 0.63 | 0.37 | – | – | – | – | – | – | – | – | – | – | – | – | – | – | – | –
MNSIAIP (displayed on phage) | – | – | – | – | – | 0.24 | 0.05 | 0.37 | 0.07 | 0.34 | 0.633±0.179 and 0.63 | Acinar cells | Acinar cells | 0.61 | 9.81 | 3.61 | 1.144 | 1.945 | 0.829 | 0.53 | Marker the phage clone shows specificity to ([7]; CP microenvironment): CPA1^+; Colocalized Markers (p < 0.05) [7, 9]: CPA-1; Radiant efficiency Targeting:M13Ke ([8]; healthy mouse, pancreas): 5.04; Radiant efficiency Targeting:M13Ke ([8]; healthy mouse, spleen): 4.36; specificity for CP over healthy pancreas [8]: increased specificity for CP over healthy pancreas
SLPLGPM (SEQ ID NO: 26) phage clone (peptide) | 0.25 | 0.23 | 0.06 | 0.35 | 0.49 | – | – | – | – | – | – | – | – | – | – | – | – | – | – | – | –
SLTNSSF (displayed on phage) | – | – | – | – | – | 0.13 | 0.11 | 0.804±0.090 and 0.80 | 0.06 | 0.33 | 0.22 | Macrophage | Macrophage | 1.33 | 8.86 | 2.65 | 1.248 | 5.469 | 0.985 | 1.06 | Radiant efficiency Targeting:M13Ke ([8]; healthy mouse, pancreas): 1.62; Radiant efficiency Targeting:M13Ke ([8]; healthy mouse, spleen): 2.69; specificity for CP over healthy pancreas [8]: increased specificity for CP over healthy pancreas
SNSQDLH (SEQ ID NO: 28) phage clone (peptide) | 0.12 | 0.33 | 0.14 | 0.23 | 0.8 | – | – | – | – | – | – | – | – | – | – | – | – | – | – | – | –
SNSQDLH (displayed on phage) | – | – | – | – | – | 0.12 | 0.14 | 0.800±0.197 and 0.80 | 0.05 | 0.33 | 0.23 | Macrophage | Macrophage | 0.73 | 6.22 | 3.27 | 1.428 | 3.009 | 0.165 | 0.51 | Radiant efficiency Targeting:M13Ke ([8]; healthy mouse, pancreas): 2.07; Radiant efficiency Targeting:M13Ke ([8]; healthy mouse, spleen): 3.11; specificity for CP over healthy pancreas [8]: increased specificity for CP over healthy pancreas
